Results on ten compounds are retold here after patent US20230147129A1, “COMPOUNDS FOR USE IN THE TREATMENT OF SYNUCLEINOPATHIES” (SOM INNOVATION BIOTECH, S.A., priority 2020, published 2023).

Assay [1] has as its target T1, α-synuclein (Homo sapiens, UniProt P37840). Briefly: Light scattering of α-synuclein aggregates at end-point (48 h). In kind it is biochemical. The note with it: 48 h end-point; for Effect on aggregation measured by light scattering at 300 and 340 nm (in words): FIG. 2A and 2B; for Normalized light scattering value at 300 nm: normalised to control = 1, excitation 300 nm; for Normalized light scattering value at 340 nm: normalised to control = 1, excitation 340 nm. Here is the method: Total aggregate formation at 48 h was measured by light scattering adding 80 μL of pre-aggregated α-synuclein into a quartz cuvette. Samples were previously re-suspended by carefully vortexing and pipetting, and then excited at 300 and 340 nm and 90° scattering collected between 280 to 360 nm. These measurements were performed in a Cary Eclipse Fluorescence Spectrophotometer (Agilent, Santa Clara, Calif., USA).

Assay [2] deals with T1, α-synuclein. In words: Thioflavin-T assay of α-synuclein aggregation kinetics. In kind it is biochemical. The note with it: 100 μM compound, FIG. 1A and 1B. Here is the method:
Lyophilized α-synuclein was dissolved in PBS (phosphate buffer solution) to a final solution of 210 μM and filtered through a Millipore 0.22 μm filter. α-synuclein aggregation was performed in a 96-well plate (non-treated, black plastic), each well containing a Teflon® polyball ⅛″ diameter (Polysciences Europe GmbH, Eppelheim, Germany), 40 μM Thioflavin-T (Th-T), 70 μM α-synuclein, 100 μM of the compounds to be tested and PBS up to a final volume of 150 μL. The plates were fixed into an orbital culture shaker Max-Q 4000 (Thermo Scientific, Waltham, Mass., USA) to keep the incubation at 37° C., 100 rpm. Every, 2 h, the fluorescence intensity was measured using a Victor 3.0 Multilabel Reader (PerkinElmer, Waltham, Mass., USA), by exciting the mixtures with 430-450 nm filter and collecting the emission intensity with 480-510 nm filter. Each measurement was performed in triplicates.
Each plate contained three (3) α-synuclein controls in the absence of any of the tested compounds. The averaged Th-T fluorescence obtained for these wells at the end of the experience was normalized to 1, and the kinetic curves in the different wells re-scaled accordingly. After compiling the fluorescence signals, means and standard error of mean (SEM) were used to fit the aggregation kinetic with equation (1),
wherein k^b and k^a indicate the homogeneous nucleation rate constant and the secondary rate constant, accounting for fibril elongation and secondary nucleation, respectively.
Re-scaled curves were used to compare the controls with the effect of the compounds and to ensure that the controls were reproducible between different experiments.

Assay [3] relates to primary culture of dopaminergic neurons injured with a mitochondrial toxin (MPP+). In words: Neuroprotection in primary culture of dopaminergic neurons injured with MPP+. The class given is cell-based, rat. The note with it: compounds 10 nM to 10 μM, pre-incubated 1 or 4 hours, MPP+ 4 μM for 48 hours, FIG. 16-20. Here is the method:
The efficacy of 5 compounds was assessed in a primary culture of dopaminergic neurons injured with a mitochondrial toxin (MPP+), which is often used to experimentally mimic the pathology of Parkinson disease (FIG. 16 to 20).
To obtain rat dopaminergic neurons, pregnant female rats (Wistar, Janvier Labs, France) of 15 days of gestation were killed using a deep anesthesia in a CO2 chamber followed by a cervical dislocation. Midbrains obtained from 15-day-old rat embryos were dissected under microscope and placed in ice-cold medium of Leibovitz (L15) containing 2% of Penicillin-Streptomycin (PS) and 1% of bovine serum albumin (BSA). The ventral portion of the mesencephalic flexure, a region of the developing brain rich in dopaminergic neurons, was used for the cell preparations.
The midbrains were dissociated by trypsinization for 20 min at 37° C. (solution at a final concentration of 0.05% trypsin and 0.02% EDTA). The reaction was stopped by adding Dulbecco's modified Eagle's medium (DMEM) containing DNAase I grade II (0.5 mg/mL) and 10% of fetal calf serum (FCS). Cells were then mechanically dissociated by 3 passages through a 10 ml pipette. […] The supernatant was discarded and the cell pellet was re-suspended in a defined culture serum-free medium consisting of Neurobasal (Invitrogen) supplemented with B27 (2%), L-glutamine (2 mM) and 2% of PS solution and 10 ng/ml of Brain-derived neurotrophic factor (BDNF) and 1 ng/mL of Glial-Derived Neurotrophic Factor (GDNF). Viable cells were counted in a Neubauer cytometer using the trypan blue exclusion test.
Half of the medium was changed every 2 days with fresh medium. On 96-wells plates, only 60 wells were used, the first columns and first lines were not used to avoid any edge effect, the empty wells were filled with sterile water.
Test compounds were tested on culture in 96-well plates (n=6 culture wells per condition).
Vehicle: Culture medium (0.1% DMSO).
Pre-incubation: On day 6 of culture, the compounds (from 10 nM to 10 μM) were dissolved in DMSO and then in culture medium, and were pre-incubated with primary dopaminergic neurons for 1 hour or 4 hours before the application of MPP+.
Injury: One or four hours after the application of the test compounds, MPP+ was added to a final concentration of 4 μM, diluted in control medium still in presence of compounds for 48 hours.
48 hours after the intoxication, the cell culture supernatant was removed, and the cells were fixed by a solution of 4% paraformaldehyde in PBS, pH=7.3 for 20 min at room temperature. The cells were washed twice in PBS, and then permeabilized. Non-specific sites were blocked with a solution of PBS containing 0.1% saponin and 1% FCS for 15 min at room temperature.
Immunostaining: TH and α-syn
The cultures were incubated with: • A monoclonal anti-Tyrosine Hydroxylase (TH) antibody produced in mouse at dilution of 1/10000 in PBS containing 1% FCS, 0.1% saponin, for 2 hours at room temperature. • a polyclonal anti-alpha synuclein (α-syn) antibody produced in rabbit at dilution of 1/200 in PBS containing 1% FCS, 0.1% saponin, for 2 hours at room temperature.
For each condition, 20 (for the TH survival and α-syn readouts) pictures representing the whole well area, were automatically taken using ImageXpress® (Molecular Devices) at 10× magnification (20 pictures, for TH and α-syn into TH neurons) using the same acquisition parameters. From images, analyses were directly and automatically performed by Custom Module Editor® (Molecular Devices). The following read-outs were measured: • Analysis of total number of THneurons (TH positive neurons), • total length of neurite network of TH positive neurons (in μm), • α-syn aggregation (overlapping between TH and α-syn staining),
Results are expressed in percentage of control. All values show the mean+/−SEM (standard error of the mean) from 4-6 wells per condition.

For the compound `CC(CCc1ccc2c(c1)OCO2)NCC(O)c1ccc(O)c(C(N)=O)c1` (centres unmarked) [Medroxalol, 5-[2-[[3-(1,3-Benzodioxol-5-yl)-1-methylpropyl]amino]-1-hydroxyethyl]-2-hydroxybenzamide], on α-synuclein [1], the “Effect on aggregation measured by light scattering at 300 and 340 nm (in words)” value (from here on “Effect on aggregation measured”) was “reduced absorbance at both length waves”; the “Normalized light scattering value at 300 nm” value is 0.72 ± 0.03; the “Normalized light scattering value at 340 nm” value came out at 0.75 ± 0.04. Moreover, the “Inhibition of Th-T fluorescence / fibril formation (in words)” value at α-synuclein [2] is recorded as “more modest inhibition of fibril formation”.

As for `N=C(NN=Cc1ccc(Cl)cc1)NN=Cc1ccc(Cl)cc1` [Robenidine, 1,2-bis[(4-chlorophenyl)methylideneamino]guanidine], on α-synuclein [1], the “Effect on aggregation measured” value was “significant reduction of the absorbance”; the “Normalized light scattering value at 300 nm” value amounted to 0.31 ± 0.03; the “Normalized light scattering value at 340 nm” value was determined as 0.31 ± 0.02.

Take `CCCOc1ccc2[nH]c(NC(=O)OC)nc2c1` [Oxibendazole, Methyl N-(6-propoxy-1H-benzimidazol-2-yl) carbamate]: on α-synuclein [1], the “Effect on aggregation measured” value is recorded as “significant reduction of the absorbance”; the “Normalized light scattering value at 300 nm” value was found to be 0.13 ± 0.02; the “Normalized light scattering value at 340 nm” value turned out to be 0.51 ± 0.10.

For the compound `O=C(c1ccccc1)N1CCN=C1Nc1c(Cl)cccc1Cl` [Benclonidine, [2-(2,6-dichloroanilino)-4,5-dihydroimidazol-1-yl]-phenylmethanone], in assay [3], the “Loss of dopaminergic neurons (TH number) after MPP+ (in words)” value (“Loss of dopaminergic neurons (TH number)” for short) is “partially prevented the loss of dopaminergic neurons” and the “α-syn aggregation (ratio a-syn area/TH number) triggered by MPP+ (in words)” value was “decreased α-syn aggregation”. On α-synuclein [1], the “Normalized light scattering value at 300 nm” value was 0.95 ± 0.07 and the “Normalized light scattering value at 340 nm” value is given as 0.98 ± 0.07. The “Inhibition of Th-T fluorescence / fibril formation (in words)” value on α-synuclein [2] was “potent inhibitors”.

For `Cc1ccnc(NS(=O)(=O)c2ccc(N)cc2)n1` [Sulfamerazine, 4-amino-N-(4-methylpyrimidin-2-yl)benzenesulfonamide], at α-synuclein [1], the “Effect on aggregation measured” value is given as “reduced absorbance at both length waves”; the “Normalized light scattering value at 300 nm” value is 0.55 ± 0.10; the “Normalized light scattering value at 340 nm” value came out at 0.78 ± 0.14. For the same compound, the “Inhibition of Th-T fluorescence / fibril formation (in words)” value on α-synuclein [2] was “potent inhibitors”.

Regarding `C[C@@H](NCCCc1cccc(C(F)(F)F)c1)c1cccc2ccccc12` [Cinacalcet, N-[(1R)-1-(1-naphthyl)ethyl]-3-[3-(trifluoromethyl)phenyl]propan-1-amine], at α-synuclein [1], the “Effect on aggregation measured” value is on record as “significant reduction of the absorbance”; the “Normalized light scattering value at 300 nm” value turned out to be 0.44 ± 0.17; the “Normalized light scattering value at 340 nm” value amounted to 0.48 ± 0.18.

As for `Nc1nc(=O)c2ncn([C@H]3C=C[C@@H](CO)C3)c2[nH]1` [(−)-Carbovir, 2-amino-9-[(1R,4S)-4-(hydroxymethyl)cyclopent-2-en-1-yl]-1H-purin-6-one], at α-synuclein [1], the “Effect on aggregation measured” value is reported as “reduced absorbance at both length waves”; the “Normalized light scattering value at 300 nm” value amounted to 0.72 ± 0.08; the “Normalized light scattering value at 340 nm” value worked out at 0.77 ± 0.09. In addition, at α-synuclein [2], the “Inhibition of Th-T fluorescence / fibril formation (in words)” value is “more modest inhibition of fibril formation”.

Turning to `N=C(N)NC(=O)Cc1c(Cl)cccc1Cl` [Guanfacine, N-(diaminomethylidene)-2-(2,6-dichlorophenyl)acetamide], in assay [3], the “Loss of dopaminergic neurons (TH number)” value is listed as “partially prevented the loss of dopaminergic neurons” and the “α-syn aggregation (ratio a-syn area/TH number) triggered by MPP+ (in words)” value is “decreased α-syn aggregation”. Further, on α-synuclein [1], the “Effect on aggregation measured” value was “significant reduction of the absorbance”; the “Normalized light scattering value at 300 nm” value turned out to be 0.65 ± 0.10; the “Normalized light scattering value at 340 nm” value was determined as 0.68 ± 0.10. The “Inhibition of Th-T fluorescence / fibril formation (in words)” value at α-synuclein [2] is given as “more modest inhibition”.

For the compound `N=C(N)NCC1COC2(CCCCC2)O1` (centres unmarked) [Guanadrel, 2-(1,4-dioxaspiro[4.5]decan-2-ylmethyl)guanidine], in assay [3], the “Loss of dopaminergic neurons (TH number)” value was “partially prevented the loss of dopaminergic neurons” and the “α-syn aggregation (ratio a-syn area/TH number) triggered by MPP+ (in words)” value is “decreased α-syn aggregation”. For the same compound, at α-synuclein [1], the “Effect on aggregation measured” value is given as “reduced absorbance at both length waves”; the “Normalized light scattering value at 300 nm” value turned out to be 0.68 ± 0.06; the “Normalized light scattering value at 340 nm” value was 0.68 ± 0.06. The “Inhibition of Th-T fluorescence / fibril formation (in words)” value at α-synuclein [2] is “more modest inhibition of fibril formation”.

As to `Cn1ncc(Cl)c1-c1cc(C(=O)N[C@H](CN)Cc2cccc(F)c2)sc1Cl` [Afuresertib, N-[(2S)-1-amino-3-(3-fluorophenyl)propan-2-yl]-5-chloro-4-(4-chloro-1-methyl-1H-pyrazol-5-yl)thiophene-2-carboxamide], in assay [3], the “Loss of dopaminergic neurons (TH number)” value is given as “partially prevented the loss of dopaminergic neurons” and the “α-syn aggregation (ratio a-syn area/TH number) triggered by MPP+ (in words)” value is reported as “decreased α-syn aggregation”. In addition, at α-synuclein [1], the “Effect on aggregation measured” value was “reduced absorbance at both length waves”; the “Normalized light scattering value at 300 nm” value was 0.44 ± 0.08; the “Normalized light scattering value at 340 nm” value is recorded as 0.62 ± 0.09. For the same compound, the “Inhibition of Th-T fluorescence / fibril formation (in words)” value at α-synuclein [2] is “potent inhibitors”.
